# Assay results as given in patent US20070276011A1, “Plasminogen Activator Inhibitor-1 Inhibitor” (priority 2003, published 2007).
# Target: recombinant human PAI-1 (Homo sapiens, UniProt P05121)
# Assay: PAI-1 inhibitory activity, Test Method A (tPA fluorogenic substrate, Tris buffer pH8.0, 37 C)
# Assay type: biochemical
# Details: 25 μM test compound; Test Method A
# recombinant human PAI-1, sequence (P05121 24-402): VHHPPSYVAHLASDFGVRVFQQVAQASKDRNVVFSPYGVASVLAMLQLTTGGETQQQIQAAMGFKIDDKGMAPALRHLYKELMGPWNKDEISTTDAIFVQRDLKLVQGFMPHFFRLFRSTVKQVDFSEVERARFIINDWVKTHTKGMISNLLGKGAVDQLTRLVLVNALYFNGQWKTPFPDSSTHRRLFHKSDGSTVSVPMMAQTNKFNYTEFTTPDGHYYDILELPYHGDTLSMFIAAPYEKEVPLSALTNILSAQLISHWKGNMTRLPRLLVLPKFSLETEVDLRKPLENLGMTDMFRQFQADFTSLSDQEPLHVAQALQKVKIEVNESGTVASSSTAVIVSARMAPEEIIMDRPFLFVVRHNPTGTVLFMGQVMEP
row,SMILES,Inhibitory Ratio at 25 μM (%)
1,"COc1ccc(C(=O)Nc2cc(C=C3SC(=O)N(Cc4ccc(Cl)c(Cl)c4)C3=O)ccc2OC)cc1 [compound 381, 5-[4-methoxy-3-(4-methoxybenzoylamino)benzylidene]-3-(3,4-dichlorobenzyl)thiazolidine-2,4-dione]",27%
2,O=C(Nc1cc(C=C2SC(=O)N(Cc3ccc(Cl)c(Cl)c3)C2=O)ccc1O)c1ccc(O)cc1 [compound 382],97%
3,"COc1ccc(NC(=O)c2cc(C=C3SC(=O)N(Cc4cc(C(F)(F)F)cc(C(F)(F)F)c4)C3=O)ccc2O)cc1OC [compound 383, 5-[4-Hydroxy-3-(3,4-dimethoxyphenylcarbamoyl)benzylidene]-3-[3,5-bis(trifluoromethyl)benzyl]thiazolidine-2,4-dione]",73%
4,"COc1ccc(NC(=O)c2cc(C=C3SC(=O)N(Cc4cc(F)cc(F)c4)C3=O)ccc2O)cc1OC [compound 385, 5-[4-Hydroxy-3-(3,4-dimethoxyphenylcarbamoyl)benzylidene]-3-(3,5-difluorobenzyl)thiazolidine-2,4-dione]",>99%
5,O=C(Nc1ccc(O)c(O)c1)c1cc(C=C2SC(=O)N(Cc3cc(F)cc(F)c3)C2=O)ccc1O [compound 386],98%
6,"COc1ccc(COC(=O)c2cc(C=C3SC(=O)N(Cc4ccc(C(F)(F)F)cc4)C3=O)ccc2O)cc1 [compound 387, 5-[4-hydroxy-3-(4-methoxybenzyloxycarbonyl)benzylidene]-3-[4-(trifluoromethyl)benzyl]thiazolidine-2,4-dione]",74%
7,"O=C(Nc1ccc(O)c(O)c1)c1cccc(C=C2SC(=O)N(Cc3ccc(Cl)c(Cl)c3)C2=O)c1 [compound 388, 5-[3-(3,4-Dihydroxyphenylcarbamoyl)benzylidene]-3-(3,4-dichlorobenzyl)thiazolidine-2,4-dione]",65%
8,"O=C(O)c1ccc(NC(=O)c2cccc(C=C3SC(=O)N(Cc4ccc(Cl)c(Cl)c4)C3=O)c2)cc1 [compound 389, 5-[3 (4-Carboxyphenylcarbamoyl)benzylidene]-3-(3,4-dichlorobenzyl)thiazolidine-2,4-dione]",>99%
9,"Cc1cc(C=C2SC(=O)N(Cc3ccc(Cl)c(Cl)c3)C2=O)cc(C(=O)O)c1O [compound 390, 5-(3-Methyl-4-hydroxy-5-carboxybenzylidene)-3-(3,4-dichlorobenzyl)thiazolidine-2,4-dione]",>99%
10,"COc1ccc(NC(=O)c2cc(C=C3SC(=O)N(Cc4ccc(C(F)(F)F)cc4)C3=O)ccc2O)cc1OC [compound 391, 5-[4-Hydroxy-3-(3,4-dimethoxyphenylcarbamoyl)benzylidene]-3-[4-(trifluoromethyl)benzyl]thiazolidine-2,4-dione]",>99%
11,O=C(Nc1ccc(Cl)nc1)c1cc(C=C2SC(=O)N(Cc3ccc(C(F)(F)F)cc3)C2=O)ccc1O [compound 392],>99%
12,"COc1ccc(NC(=O)c2cc(C=C3SC(=O)N(Cc4cc(C)cc(C)c4)C3=O)ccc2O)cc1OC [compound 393, 5-[4-Hydroxy-3-(3,4-dimethoxyphenylcarbamoyl)benzylidene]-3-(3,5-dimethylbenzyl)thiazolidine-2,4-dione]",>99%
13,Cc1cc(C)cc(CN2C(=O)SC(=Cc3ccc(O)c(C(=O)Nc4ccc(O)c(O)c4)c3)C2=O)c1 [compound 394],>99%
14,"COc1ccc(NC(=O)c2cc(C=C3SC(=O)N(Cc4cc(Cl)cc(Cl)c4)C3=O)ccc2O)cc1OC [compound 395, 5-[4-Hydroxy-3-(3,4-dimethoxyphenylcarbamoyl)benzylidene]-3-(3,5-dichlorobenzyl)thiazolidine-2,4-dione]",88%
15,O=C(Nc1ccc(O)c(O)c1)c1cc(C=C2SC(=O)N(Cc3cc(Cl)cc(Cl)c3)C2=O)ccc1O [compound 396],95%
16,"COc1ccc(NC(=O)c2cc(C=C3SC(=O)N(Cc4ccc(Cl)cc4Cl)C3=O)ccc2O)cc1OC [compound 397, 5-[4-Hydroxy-3-(3,4-dimethoxyphenylcarbamoyl)benzylidene]-3-(2,4-dichlorobenzyl)thiazolidine-2,4-dione]",>99%
17,O=C(Nc1ccc(O)c(O)c1)c1cc(C=C2SC(=O)N(Cc3ccc(Cl)cc3Cl)C2=O)ccc1O [compound 398],>99%
18,"COc1ccc(NC(=O)c2cc(C=C3SC(=O)N(Cc4cccc(Oc5ccccc5)c4)C3=O)ccc2O)cc1OC [compound 399, 5-[4-Hydroxy-3-(3,4-dimethoxyphenylcarbamoyl)benzylidene]-3-(3-phenoxybenzyl)thiazolidine-2,4-dione]",>99%
19,O=C(Nc1cc(C(F)(F)F)ccc1C(F)(F)F)c1cc(C=C2SC(=O)N(Cc3ccc(Cl)c(Cl)c3)C2=O)ccc1O [compound 403],58%
20,O=C(Nc1cc(C(F)(F)F)cc(C(F)(F)F)c1)c1cc(C=C2SC(=O)N(Cc3ccc(Cl)c(Cl)c3)C2=O)ccc1O [compound 404],>99%

row,SMILES,Inhibitory Ratio at 25 μM (%)
1,"COC(=O)c1ccc(NC(=O)c2cc(C=C3SC(=O)N(Cc4ccc(Cl)c(Cl)c4)C3=O)ccc2O)cc1OC [compound 405, 5-{4-hydroxy-3-[3-methoxy-4-(methoxycarbonyl)phenylcarbamoyl]-benzylidene}-3-(3,4-dichlorobenzyl)thiazolidine-2,4-dione]",55%
2,"COc1ccc(NC(=O)c2cc(C=C3SC(=O)N(Cc4ccc(Cl)c(Cl)c4)C3=O)ccc2O)cn1 [compound 407, 5-{4-hydroxy-3-[(2-methoxypyridin-5-yl)carbamoyl]benzylidene}-3-(3,4-dichlorobenzyl)thiazolidine-2,4-dione]",97%
3,O=C(Nc1ccc(O)nc1)c1cc(C=C2SC(=O)N(Cc3ccc(Cl)c(Cl)c3)C2=O)ccc1O [compound 408],>99%
4,"O=C1SC(=Cc2c[nH]c3ccccc23)C(=O)N1Cc1ccc(Cl)c(Cl)c1 [compound 410, 5-(indol-3-ylmethylene)-3-(3,4-dichlorobenzyl)thiazolidine-2,4-dione]",36%
5,"O=C1SC(=Cc2cn(Cc3ccc(OCc4ccccc4)c(OCc4ccccc4)c3)c3ccccc23)C(=O)N1Cc1ccc(Cl)c(Cl)c1 [compound 411, 5-[1-(3,4-dibenzyloxybenzyl)indol-3-ylmethylene]-3-(3,4-dichlorobenzyl)thiazolidine-2,4-dione]",95%
6,O=C(Nc1cccc(OC(F)(F)F)c1)c1cc(C=C2SC(=O)N(Cc3ccc(Cl)c(Cl)c3)C2=O)ccc1O [compound 414],91%
7,"COC(=O)c1ccc(CN2C(=O)SC(=Cc3ccc(O)c(C(=O)Nc4ccc(Cl)c(Cl)c4)c3)C2=O)cc1 [compound 415, 5-[4-hydroxy-3-(3,4-dichlorophenylcarbamoyl)benzylidene]-3-(4-methoxycarbonylbenzyl)thiazolidine-2,4-dione]",>99%
8,"COC(=O)c1ccc(NC(=O)c2cc(C=C3SC(=O)N(Cc4ccc(Cl)c(Cl)c4)C3=O)ccc2O)cc1 [compound 416, 5-{4-hydroxy-3-[4-(methoxycarbonyl)phenylcarbamoyl]benzylidene}-3-(3,4-dichlorobenzyl)thiazolidine-2,4-dione]",73%
9,"COC(=O)c1cccc(NC(=O)c2cc(C=C3SC(=O)N(Cc4ccc(Cl)c(Cl)c4)C3=O)ccc2O)c1 [compound 417, 5-{4-hydroxy-3-[3-(methoxycarbonyl)phenylcarbamoyl]benzylidene}-3-(3,4-dichlorobenzyl)thiazolidine-2,4-dione]",59%
10,O=C(O)c1ccc(CN2C(=O)SC(=Cc3ccc(O)c(C(=O)Nc4ccc(Cl)c(Cl)c4)c3)C2=O)cc1 [compound 418],80%
11,O=C(O)c1ccc(NC(=O)c2cc(C=C3SC(=O)N(Cc4ccc(Cl)c(Cl)c4)C3=O)ccc2O)cc1 [compound 419],>99%
12,O=C(O)c1cccc(NC(=O)c2cc(C=C3SC(=O)N(Cc4ccc(Cl)c(Cl)c4)C3=O)ccc2O)c1 [compound 420],85%
13,"COc1ccc(Oc2ccc(C(F)(F)F)cc2NC(=O)c2cc(C=C3SC(=O)N(Cc4cccc(Oc5ccccc5)c4)C3=O)ccc2O)cc1 [compound 421, 5-(4-hydroxy-3-{[2-(4-methoxyphenoxy)-5-(trifluoromethyl)-phenyl]carbamoyl}benzylidene)-3-(3-phenoxybenzyl)thiazolidine-2,4-dione]",>99%
14,O=C(Nc1cc(C(F)(F)F)ccc1Oc1ccc(O)cc1)c1cc(C=C2SC(=O)N(Cc3ccc(Cl)c(Cl)c3)C2=O)ccc1O [compound 422],95%
15,O=C(Nc1cccc([N+](=O)[O-])c1)c1cc(C=C2SC(=O)N(Cc3ccc(Cl)c(Cl)c3)C2=O)ccc1O [compound 424],87%
16,"O=C(OCc1ccccc1)c1cc(C=C2SC(=O)N(Cc3ccc(Cl)c(Cl)c3)C2=O)cc(-c2ccccc2)c1O [compound 426, 5-[3-Phenyl-4-hydroxy-5-(benzyloxycarbonyl)benzylidene]-3-(3,4-dichlorobenzyl)thiazolidine-2,4-dione]",91%
17,COC(=O)c1ccc(C(=O)n2cc(C=C3SC(=O)N(Cc4ccc(Cl)c(Cl)c4)C3=O)c3ccccc32)cc1 [compound 427],85%
18,O=C(Nc1ccc2c(c1)OCO2)c1cc(C=C2SC(=O)N(Cc3ccc(Cl)c(Cl)c3)C2=O)ccc1O [compound 428],86%
19,COC(=O)c1cc(C=C2SC(=O)N(Cc3ccc(Cl)cc3Cl)C2=O)cc(OC)c1O [compound 429],83%
20,O=C(O)c1cc(C=C2SC(=O)N(Cc3ccc(Cl)c(Cl)c3)C2=O)cc(-c2ccccc2)c1O [compound 430],87%
